The values that follow come from patent US11369568B2, “Microparticles comprising a sulphur-containing compound” (NOVABIOTICS LIMITED, priority 2016, dated 2022).

For one test, the system named is P. aeruginosa ATCC27853. Kind of test: Mouse IN neutropenic lung burden model, Lynovex/Lactose study. Particulars: CD1 mice, 24 h post-infection. In kind it is in vivo, Pseudomonas aeruginosa. The protocol:
Animals were immunosuppressed/pre-conditioned with either 200 mg/kg or 150 mg/kg cyclophosphamide. Lynovex, chemical name cysteamine, and vehicle were either prepared either as Lynovex and lactose vehicle, or Lynovex and mannitol-based vehicle (both provided by Upperton (Upperton product)). These were prepared for treatment and vehicle-control alone respectively, and in combination. Tobramycin was prepared as an inhalation formulation in lactose. All treatments were administered using a Penn Century device. Phosphate buffered saline (PBS) and Pseudomonas selective agar were required for bacterial tissue burden.
(§1) Male CD1 mice (n =6 for treatment groups, plus five in pre-treatment group, totalling 35 mice) were used in this study. On day −4, the mice were immunosuppressed/pre-conditioned with 200 mg/kg cyclophosphamide intraperitoneally; and with 150 mg/kg cyclophosphamide intraperitoneally on day-1. An infection was established with P. aeruginosa ATCC27853, with an inoculum of 5×10^6 cfu/ml, administered intranasally in a volume of 40 μl following anaesthetisation with a ketamine/xylazine anaesthetic cocktail for 15 minutes, for the Lynovex prepared in lactose study, and an inoculum of 4×10^6 for the Upperton Lynovex product.
Treatment. All treatments were administered intratracheally using a Penn Century device.
Lynovex (cysteamine) was administered at 1.5 mg alone, and in combination with lactose at the following concentrations: Lynovex 0.75 mg+2.25 mg lactose powder, Lynovex 1.5 mg+1.5 mg lactose powder, Lynovex 2.25 mg+0.75 mg, along with a vehicle only control of 3 mg lactose. In addition, Tobramycin at 188 μg/dose was administered, as an inhaled formulation which was mixed with lactose to aid measurement. The treatments were administered approximately 5 minutes after infection.
The lung tissue burden of each animal, at the clinical end point of 24 h post-infection, was determined. The lungs were homogenised in 2 ml PBS, serially diluted in PBS and plated onto Pseudomonas selective agar before quantification after 24-48 h at 37° C.

Test [1] can be described thus: Mouse weights recorded before and after infection. The class given is in vivo. The conditions noted are these: infected CD1 mice, Upperton product study (FIG. 6). The protocol: as §1
In a different study, Lynovex was administered at the following doses: 3 mg 5% Lynovex and 3 mg 10% Lynovex. Lynovex in combination with Tobramycin as follows: 3 mg 5% Lynovex+Tobramycin 0.188 mg in 1.5 mg vehicle, 3 mg 10% Lynovex+Tobramycin 0.188 mg in 1.5 mg Vehicle (mannitol-based, provided by Upperton) and a Tobramycin only control (0.188 mg/dose in lactose vehicle). The treatments were administered once approximately 10 minutes after infection.
Additionally, mouse weights were recorded before and after infection. Mice treated with vehicle, Lynovex monotherapy or Tobramycin monotherapy lost weight following infection. […]

Each structure is given as a SMILES string.

For `NCCS` [Lynovex, cysteamine], the “lung burden compared to vehicle” value is recorded as “reduced the lung burden” in the test on P. aeruginosa ATCC27853 (1.5 mg intratracheal, P=0.0072) and “reduced the lung burden” in the test on P. aeruginosa ATCC27853 (2.25 mg intratracheal, P=0.0349).

Turning to `NC[C@H]1O[C@H](O[C@H]2[C@H](O)[C@@H](O[C@H]3O[C@H](CO)[C@@H](O)[C@H](N)[C@H]3O)[C@H](N)C[C@@H]2N)[C@H](N)C[C@@H]1O` [Tobramycin], the “lung burden compared with vehicle-treated mice” value in the test with P. aeruginosa ATCC27853 (0.188 mg inhalation formulation, intratracheal, P=0.0097 Kruskal Wallis test) was “statistically significant reduction in lung burden”. In addition, the “mouse weight following infection” value in test [1] is listed as “lost weight”.
